One experiment deals with DYRK1A (Homo sapiens, UniProt Q13627). Kind of experiment: FRET-based LanthaScreen Eu Kinase Binding Assay for DYRK1A. Conditions: for DYRK1A inhibition (result in words): in vitro at the concentrations tested (1000 nM and 300 nM); for inhibition at 0.3 µM: read-out: % DYRK1A Inhibition 300 nM; for inhibition at 1 µM: read-out: % DYRK1A Inhibition 1000 nM; for IC50: 10 point LanthaScreen Eu Kinase Binding Assay; for fold less potent DYRK1A inhibition as compared to harmine: relative to harmine (27 nM). The procedure:
Compounds were tested for DYRK1A binding activity by a commercial kinase profiling services, Life Technologies which uses the FRET-based LanthaScreen® Eu Kinase Binding Assay. Compounds were screened for DYRK1A activity at concentrations of 1000 nM and 300 nM in duplicates. The IC50 was determined by 10 point LanthaScreen® Eu Kinase Binding Assay in duplicates.
On the technique in general: In TR-FRET formats the signal depends on donor and acceptor labels being close together.

The subject of a further experiment is human β-cells. Kind of experiment: Human β-cell proliferation assay (Ki67-insulin co-immunolabeling, dispersed human islets). To be noted: for human β-cell proliferation at screening concentration: 10 μM, Ki-67-insulin co-immunolabeling after 4 days, n = 3. It is filed as cell-based. The procedure:
Human pancreatic islets were obtained from the NIH/NIDDK-supported Integrated Islet Distribution Program (IIDP) Duarte, CA, USA (https://iidp.coh.org) and studied using protocols that have been published in detail. Briefly, islets were first dispersed with Accutase (Sigma, St. Louis, MO, USA) onto coverslips, and treated with vehicle (0.1% DMSO) or with harmine-related compounds in RPMI1640 complete medium for 96 h. Then the cells were then, fixed with formaldehyde and immunolabeled for insulin and Ki67 as described below. Total insulin-positive cells and cells double positive Ki67 and insulin positive cells were imaged and counted. Islets from 3–5 different adult donors were tested as described in Figure 4. At least 1000 β-cells were counted for human islet donor.

The mark [1] stands for this setting: compound at 1000 nM, duplicates.
Where [2] appears, read: 1-2b at 30 μM vs harmine at 10 μM.

Data on 32 compounds can be found in PMC7221803, “Structure–Activity Relationships and Biological Evaluation of 7-Substituted Harmine Analogs for Human β-Cell Proliferation” (Molecules, 2020).

SMILES strings stand for the structures. “And” between values parts separate entries of the source, which are not always exact repeats. Equal values may be shown once. Read-outs that look alike come from different tables or passages of the source.

In general, inhibition refers to the change of the read-out against control, counted positive when it falls. Consider `Cc1nccc2c1[nH]c1cc(N)ccc12` [1-9, 7-Amino-1-methyl-9H-b-carboline], for which, on DYRK1A, the “DYRK1A inhibition (result in words)” value is on record as “completely lost its DYRK1A inhibitory activity”, the inhibition at 0.3 µM came to 8% and the inhibition at 1 µM was 21%.

For `Cc1nccc2c1[nH]c1cc(OCC(N)=O)ccc12` [1-3a, 2-(7-Oxy-1-methyl-9-H-b-carbolin)acetamide], the inhibition at 0.3 µM on DYRK1A (compound at 300 nM, duplicates) amounted to 10%. Moreover, the inhibition at 1 µM at DYRK1A (setting [1]) is 30%.

In general, IC50 refers to the midpoint of a concentration-inhibition curve. Consider `Cc1nccc2c1[nH]c1cc(OCCC(N)=O)ccc12` [1-3b, 3-(7-Oxy-1-methyl-9-H-b-carbolin)propionamide], for which the IC50 at DYRK1A (duplicates) was 91 nM. In addition, the “fold less potent DYRK1A inhibition as compared to harmine” value on DYRK1A is on record as ~ 3 fold. Also, in the experiment with human β-cells, the “human β-cell proliferation at screening concentration” value is given as “exhibit human β-cell proliferation”.

Turning to `Cc1nccc2c1[nH]c1cc(OCCOCCNC(=O)OC(C)(C)C)ccc12` [1-2n, 2-((7-Oxy-1-methyl-9-H-b-carbolin)ethoxy)ethyl tert-butyl carbamate], the inhibition at 0.3 µM on DYRK1A (compound at 300 nM, duplicates) was determined as 27%. The inhibition at 1 µM on DYRK1A (setting [1]) worked out at 48%.

For `Cc1nccc2c1[nH]c1cc(NC(=O)c3ccccc3)ccc12` [1-11, 7-Benzamide-1-methyl-9H-b-carboline], the IC50 at DYRK1A (duplicates) turned out to be 389 ± 32.6 nM. Besides, at DYRK1A (compound at 300 nM, duplicates), the inhibition at 0.3 µM was determined as 48%. At DYRK1A (setting [1]), the inhibition at 1 µM came out at 77%. In addition, the “DYRK1A inhibition (result in words)” value on DYRK1A is reported as “partially recovered”.

As for `Cc1nccc2c1[nH]c1cc(OC(=O)NC(C)C)ccc12` [1-12, 1-Methyl-9H-pyrido[3,4-b]indol-7-yl isopropylcarbamate], at DYRK1A, the “DYRK1A inhibition (result in words)” value was “moderately active”, the inhibition at 0.3 µM worked out at 42% and the inhibition at 1 µM came out at 69%.

On to `COC(=O)CCCOc1ccc2c(c1)[nH]c1c(C)nccc12` [1-2c, 4-(7-Oxy-1-methyl-9-H-b-carbolin)butnoic acid methyl ester], for which the inhibition at 0.3 µM on DYRK1A (compound at 300 nM, duplicates) came to 47%. Further, on DYRK1A (setting [1]), the inhibition at 1 µM is 78%.

Consider `Cc1nccc2c1[nH]c1cc(OCCCCN)ccc12` [1-5c, 4-(7-Oxy-1-methyl-9-H-b-carbolin)butylamine hydrochloric acid], for which the inhibition at 0.3 µM at DYRK1A (compound at 300 nM, duplicates) was found to be 15%. Moreover, the inhibition at 1 µM at DYRK1A (setting [1]) turned out to be 42%.

`Cc1nccc2c1[nH]c1cc(OCCCCCC(N)=O)ccc12` [1-3e, 6-(7-Oxy-1-methyl-9-H-b-carbolin)hexanamide]: the inhibition at 0.3 µM on DYRK1A (compound at 300 nM, duplicates) turned out to be 39%. Besides, the inhibition at 1 µM on DYRK1A (setting [1]) turned out to be 67%.

Take `Cc1nccc2c1[nH]c1cc(OCCCNC(=O)OC(C)(C)C)ccc12` [1-2l, 3-(7-Oxy-1-methyl-9-H-b-carbolin)propyl tert-butyl carbamate]: on DYRK1A (compound at 300 nM, duplicates), the inhibition at 0.3 µM stood at 24%. Moreover, on DYRK1A (setting [1]), the inhibition at 1 µM is 50%.

As to `COC(=O)CCOc1ccc2c(c1)[nH]c1c(C)nccc12` [1-2b, 3-(7-Oxy-1-methyl-9-H-b-carbolin)propionic acid methyl ester], the IC50 at DYRK1A (duplicates) is 89 nM and 89.7 nM. The “fold less potent DYRK1A inhibition as compared to harmine” value at DYRK1A was 4 fold and ~ 3 fold. The “human β-cell proliferation at screening concentration” value in the experiment on human β-cells is “exhibit human β-cell proliferation”. Besides, in the experiment on human β-cells (setting [2]), the “human β-cell proliferation relative to harmine (in words)” value is listed as “half that of harmine” and the “maximal human β-cell proliferation as % that of harmine” value came out at 66%. Also, the “human β-cell proliferation dose-response” value in the experiment with human β-cells (dose-response up to 30 μM, n = 3 human islet donors for each dose) was “induced proliferation in a dose-dependent manner”.

As to `Cc1nccc2c1[nH]c1cc(OCCCC(N)=O)ccc12` [1-3c, 4-(7-Oxy-1-methyl-9-H-b-carbolin)butanamide], at DYRK1A (compound at 300 nM, duplicates), the inhibition at 0.3 µM was 32%. In addition, at DYRK1A (setting [1]), the inhibition at 1 µM came out at 58%.

On to `COCCOc1ccc2c(c1)[nH]c1c(C)nccc12` [1-2o, 2-(7-oxy-1-methyl-9-H-b-carbolin)methoxyethyl], for which, on DYRK1A, the “DYRK1A inhibition (result in words)” value is reported as “not favorable for the DYRK1A inhibition”, the inhibition at 0.3 µM was 23% and the inhibition at 1 µM was 48%.

Consider `Cc1nccc2c1[nH]c1cc(OCCC(=O)O)ccc12` [1-4b, 3-(7-Oxy-1-methyl-9-H-b-carbolin)propionic acid], for which the IC50 on DYRK1A (duplicates) was found to be 1810 ± 101 nM.

With `COC(=O)CCCCCOc1ccc2c(c1)[nH]c1c(C)nccc12` [1-2e, 6-(7-Oxy-1-methyl-9-H-b-carbolin)hexanoic acid methyl ester], the IC50 at DYRK1A (duplicates) turned out to be 134 ± 4.55 nM. For the same compound, on DYRK1A, the inhibition at 0.3 µM was found to be 56% and the inhibition at 1 µM is 81%.

As for `Cc1nccc2c1[nH]c1cc(OCCOCCN)ccc12` [1-5d, 2-((7-Oxy-1-methyl-9-H-b-carbolin)ethoxy)ethylamine hydrochloric acid], on DYRK1A (compound at 300 nM, duplicates), the inhibition at 0.3 µM was found to be 15%. On DYRK1A (setting [1]), the inhibition at 1 µM is 32%.

As to `CC(=O)NCCCCOc1ccc2c(c1)[nH]c1c(C)nccc12` [1-6c, 4-(7-Oxy-1-methyl-9-H-b-carbolin) -2-acetyl-butylamine], the inhibition at 0.3 µM at DYRK1A (compound at 300 nM, duplicates) was 45%. For the same compound, the inhibition at 1 µM at DYRK1A (setting [1]) is 69%.

Turning to `Cc1nccc2c1[nH]c1cc(OCCCCC(N)=O)ccc12` [1-3d, 5-(7-Oxy-1-methyl-9-H-b-carbolin)pentanamide], the inhibition at 0.3 µM at DYRK1A (compound at 300 nM, duplicates) was found to be 67%. For the same compound, on DYRK1A (setting [1]), the inhibition at 1 µM came to 88%.

`Cc1nccc2c1[nH]c1cc(OCCNC(=O)OC(C)(C)C)ccc12` [1-2k, 2-(7-Oxy-1-methyl-9-H-b-carbolin)ethyl tert-butyl carbamate]: the inhibition at 0.3 µM at DYRK1A (compound at 300 nM, duplicates) is 35%. The inhibition at 1 µM on DYRK1A (setting [1]) amounted to 61%.

On to `COC(=O)COc1ccc2c(c1)[nH]c1c(C)nccc12` [1-2a, 2-(7-Oxy-1-methyl-9-H-b-carbolin)acetic acid methyl ester], for which the IC50 on DYRK1A (duplicates) came out at 194 ± 11.7 nM. Also, on DYRK1A, the inhibition at 0.3 µM came to 58% and the inhibition at 1 µM is 85%.

Turning to `Cc1nccc2c1[nH]c1cc(OCCCCCC(=O)O)ccc12` [1-4e, 6-(7-Oxy-1-methyl-9-H-b-carbolin)hexanoic acid], the inhibition at 0.3 µM at DYRK1A (compound at 300 nM, duplicates) was determined as 43%. Moreover, the inhibition at 1 µM at DYRK1A (setting [1]) came out at 74%.

Take `CCOCCOc1ccc2c(c1)[nH]c1c(C)nccc12` [1-2p, 3-(7-Oxy-1-methyl-9-H-b-carbolin)ethoxyethyl]: on DYRK1A (compound at 300 nM, duplicates), the inhibition at 0.3 µM was 19%. The inhibition at 1 µM at DYRK1A (setting [1]) came to 37%. The “DYRK1A inhibition (result in words)” value on DYRK1A is given as “not favorable for the DYRK1A inhibition”.

In the case of `Cc1nccc2c1[nH]c1cc(OCCCCC(=O)O)ccc12` [1-4d, 5-(7-Oxy-1-methyl-9-H-b-carbolin)pentanoic acid], the inhibition at 0.3 µM on DYRK1A (compound at 300 nM, duplicates) was 20%. On DYRK1A (setting [1]), the inhibition at 1 µM amounted to 44%.

Regarding `CC(=O)NCCOc1ccc2c(c1)[nH]c1c(C)nccc12` [1-6a, 2-(7-Oxy-1-methyl-9-H-b-carbolin)-2-acetyl-ethylamine], the inhibition at 0.3 µM on DYRK1A (compound at 300 nM, duplicates) amounted to 24%. Moreover, the inhibition at 1 µM at DYRK1A (setting [1]) is 49%.

Take `COC(=O)CCCCOc1ccc2c(c1)[nH]c1c(C)nccc12` [1-2d, 5-(7-Oxy-1-methyl-9-H-b-carbolin)pentanoic acid methyl ester]: the inhibition at 0.3 µM at DYRK1A (compound at 300 nM, duplicates) was 35%. Further, the inhibition at 1 µM on DYRK1A (setting [1]) is 67%.

Regarding `Cc1nccc2c1[nH]c1cc(OCCCN)ccc12` [1-5b, 3-(7-Oxy-1-methyl-9-H-b-carbolin)propylamine hydrochloric acid], at DYRK1A, the inhibition at 0.3 µM came out at 8% and the inhibition at 1 µM came out at 28%.

Consider `Cc1nccc2c1[nH]c1cc(OCC(=O)O)ccc12` [1-4a, 2-(7-Oxy-1-methyl-9-H-b-carbolin)acetic acid], for which, at DYRK1A, the inhibition at 0.3 µM was found to be 3% and the inhibition at 1 µM is 6%.

For the compound `Cc1nccc2c1[nH]c1cc(OCCN)ccc12` [1-5a, 2-(7-Oxy-1-methyl-9-H-b-carbolin)ethylamine hydrochloric acid], the inhibition at 0.3 µM at DYRK1A (compound at 300 nM, duplicates) was 12%. The inhibition at 1 µM at DYRK1A (setting [1]) was found to be 25%.

`Cc1nccc2c1[nH]c1cc(OCCCCNC(=O)OC(C)(C)C)ccc12` [1-2m, 4-(7-Oxy-1-methyl-9-H-b-carbolin)butyl tert-butyl carbamate]: the inhibition at 0.3 µM on DYRK1A (compound at 300 nM, duplicates) was 31%. At DYRK1A (setting [1]), the inhibition at 1 µM is 58%.

Turning to `CC(=O)NCCOCCOc1ccc2c(c1)[nH]c1c(C)nccc12` [1-6d, 2-((7-Oxy-1-methyl-9-H-b-carbolin)ethoxy)-2-acetyl-ethylamine], the inhibition at 0.3 µM on DYRK1A (compound at 300 nM, duplicates) amounted to 17%. For the same compound, the inhibition at 1 µM on DYRK1A (setting [1]) was determined as 41%.

Take `Cc1nccc2c1[nH]c1cc(OCCCC(=O)O)ccc12` [1-4c, 4-(7-Oxy-1-methyl-9-H-b-carbolin)butnoic acid]: at DYRK1A (compound at 300 nM, duplicates), the inhibition at 0.3 µM stood at 6%. In addition, the inhibition at 1 µM on DYRK1A (setting [1]) worked out at 19%.

With `CC(=O)NCCCOc1ccc2c(c1)[nH]c1c(C)nccc12` [1-6b, 3-(7-Oxy-1-methyl-9-H-b-carbolin) -2-acetyl-propylamine], the inhibition at 0.3 µM on DYRK1A (compound at 300 nM, duplicates) was 22%. The inhibition at 1 µM at DYRK1A (setting [1]) is 49%.
